Values after ≈ are worked out from the molar mass of the structure shown.
Tests used:
Fusarium culmorum = test: Activity against seedling wheat blight, soil drench (Fs); format: in vivo; design: scale not given here; conditions: 10 kg/ha, 21 days, activity grade 1 or 2, not defined
Outline: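 Wheat seeds (var Waggoner) soaked 6 h at 22° C in 7×10^5 spores/ml, sown in sand; 1 day later soil drench at 10 kg/ha (0.36 g/l in 12% v/v acetone/water). Glasshouse at 25° C; at 21 days, stem-base and upper-root lesions scored visually against control seedlings.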

Chaetomium globosum = test: Minimum inhibitory concentration, Chaetomium globosum (Chg); format: cell-based
Procedure: (§1) Inocula of the fungi Aspergillus niger, Cladosporium resinae and Chaetomium globosum were prepared containing 5×10^5 conidia/ml in a potato dextrose broth. The potato dextrose broth was prepared by suspending 4 g potato extract and 20 g dextrose in 1 liter of distilled water, warming to achieve solution, separating into aliquots and sterilising by autoclaving at 121° C. for 15 minutes.
(§2) Test procedures were as follows:
(§3) (ii) Dilution Series for Other Test Bacteria, Yeast and Filamentous Fungi
(§4) Dilution series from the stock solution of each compound were prepared in sterile distilled water. These contained 50, 100, 500 and 1000 ppm compound. To duplicate wells of a compartmentalised square petri dish 0.3 ml of each test compound concentration was added together with 2.7 ml of one of the microbial inocula described above. This gave final concentrations of the test compound of 5, 10, 50 and 100 ppm.
(§5) After incubation, in the dark, at 30° C. the wells were examined for the presence or absence of growth. Bacterial and yeast cultures were examined after 24 hours and 72 hours incubation and the fungi cultures after 3, 7 and 10 days.
(§6) By means of the above tests minimum inhibitory concentrations were determined for the various test compounds.

Desulfovibrio sp. = test: Minimum inhibitory concentration, sulphate-reducing bacteria (Dsp); format: cell-based; conditions: 30° C., 2, 5 and 10 days
Procedure: The sulphate reducing bacteria Desulfovibrio sp. were cultured in a modified Postgate's Medium B for 48 hours at 30° C. and used directly as an inoculum. The modified Postgate's Medium B consisted of 0.5 g dipotassium hydrogen phosphate, 1 g ammonium chloride, 1 g sodium sulphate, 5 g sodium lactate, 1 g yeast extract, 0.1 ml thioglycolic acid, 0.1 ml ascorbic acid, 0.5 g ferrous sulphate heptahydrate, 750 ml aged seawater and 250 ml distilled water, pH adjusted to 7.8, divided into aliquots and sterilised by autoclaving at 121° C. for 15 minutes. […] Test procedures were as follows: (i) Suphate-reducing Bacteria Test Dilution Series Duplicate aliquots (9.9 ml) of dilution series from the stock solutions of each compound were prepared in a modified Postgate's Medium B described above. These contained 100 ppm compound. These were then inoculated with 0.1 ml of inoculum. After incubation at 30° C., the presence or absence of growth--as indicated by a blackening of the medium due to ferrous sulphide production--was recorded at 2, 5 and 10 days. […] By means of the above tests minimum inhibitory concentrations were determined for the various test compounds.

Escherichia coli = test: Minimum inhibitory concentration, Escherichia coli (Ec); format: cell-based, Escherichia coli (NCIB 9517); conditions: 30° C., 24 and 72 hours
Procedure: (§7) In respect of S. aureus, B. subtilis and E. coli, the microorganisms were cultured in 50 ml aliquots of a tryptone soya broth in 250 ml conical flasks at 30° C. on a rotary shaker at 200 rpm for 24 hours. Tryptone soya broth was prepared by adding 17 g pancreatic digest of casein, 3 g […] digest of soyabean meal, 5 g of sodium chloride, 2.5 g of dipotassium hydrogen phosphate and 2.5 g of dextrose to 1 liter of distilled water, mixing and sterilising by autoclaving at 121° C. for 15 minutes. 1 ml aliquots of the resulting cultures were mixed with 99 ml of fresh tryptone soya broth and used as inocula for tests. […] Test procedures were as follows: (ii) Dilution Series for Other Test Bacteria, Yeast and Filamentous Fungi Dilution series from the stock solution of each compound were prepared in sterile distilled water. These contained 50, 100, 500 and 1000 ppm compound. To duplicate wells of a compartmentalised square petri dish 0.3 ml of each test compound concentration was added together with 2.7 ml of one of the microbial inocula described above. […] After incubation, in the dark, at 30° C. the wells were examined for the presence or absence of growth. Bacterial and yeast cultures were examined after 24 hours and 72 hours incubation and the fungi cultures after 3, 7 and 10 days. By means of the above tests minimum inhibitory concentrations were determined for the various test compounds.

[1] = test system: Pseudocercosporella herpotrichoides; test: In vitro activity against wheat eyespot (Ph); format: cell-based; design: Ph: activity against wheat eyespot: scale not given here; conditions: in vitro, 100 ppm in agar, 11 days; activity grade 1 or 2, not defined
Outline: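 Compound was dispersed from acetone into half-strength potato dextrose agar at 100 ppm final. Two 5 mm mycelial plugs were placed on each plate, which was incubated 11 days at 20–22 °C in darkness. Diametric growth minus plug width was compared with acetone-only agar.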

Aspergillus niger = test: Minimum inhibitory concentration, Aspergillus niger (An); format: cell-based, Aspergillus niger (CMI 17454); conditions: 30° C., 3, 7 and 10 days
Procedure: as §1, §2, §3, §4, §5, §6

Bacillus subtilis = test: Minimum inhibitory concentration, Bacillus subtilis (Bs); format: cell-based; conditions: 30° C., 24 and 72 hours
Procedure: as §7

Staphylococcus aureus = test: Minimum inhibitory concentration, Staphylococcus aureus (Sa); format: cell-based, Staphylococcus aureus (NCIB 6571); conditions: 30° C., 24 and 72 hours
Procedure: as §7

Saccharomyces cerevisiae = test: Minimum inhibitory concentration, yeast (Sc); format: cell-based, Saccharomyces cerevisiae (ATCC 9763); conditions: 30° C., 24 and 72 hours
Procedure: Inocula of S. cerevisiae were prepared as for S. aureus, B. subtilis and E. coli, but using yeast malt broth in place of the typtone soya broth. The yeast malt broth was prepared by suspending 3 g yeast extract, 3 g malt extract, 5 g peptone and 10 g dextrose in 1 liter of distilled water, warming to achieve solution and sterilising by autoclaving at 121° C. for 15 minutes.
as §2, §3, §4, §5, §6

Cladosporium resinae = test: Minimum inhibitory concentration, Cladosporium resinae (Cr); format: cell-based; conditions: Amorphotheca resinae, 30° C., 3, 7 and 10 days
Procedure: as §1, §2, §3, §4, §5, §6

Q: What does the source list for `N#CN=[N+]([O-])c1cc(Cl)cc2c1OC(CO)C2` (stereo not drawn) [Example 11]?
A: Fs: activity against seedling wheat blight (Fusarium culmorum): 2; MIC (Chaetomium globosum; 30° C., 3, 7 and 10 days): 25 µg/mL (≈ 98.6 µM); MIC (Desulfovibrio sp.): 100 µg/mL (≈ 394 µM); MIC (Escherichia coli): 100 µg/mL (≈ 394 µM); Ph: activity against wheat eyespot [1]: 2; MIC (Aspergillus niger): 25 µg/mL (≈ 98.6 µM); MIC (Bacillus subtilis): 25 µg/mL (≈ 98.6 µM); MIC (Staphylococcus aureus): 100 µg/mL (≈ 394 µM); MIC (Saccharomyces cerevisiae): 100 µg/mL (≈ 394 µM); MIC (Cladosporium resinae): 50 µg/mL (≈ 197 µM)

Q: Which “Fs: activity against seedling wheat blight” value (“Fs: activity” for short) (Fusarium culmorum) does the source give for `Cc1cc2cccc([N+]([O-])=NC#N)c2o1` [Example 16] here?
A: The value was 1.

Q: What about the MIC (Desulfovibrio sp.) of the same molecule?
A: Its MIC is 50 to 100 µg/mL (≈ 249 to 497 µM).

Q: And the MIC (Escherichia coli)?
A: The MIC was > 100 µg/mL.

Q: What about the “Ph: activity against wheat eyespot” value [1] of the same molecule?
A: The value was 1.

Q: What about the MIC (Aspergillus niger) of the same molecule?
A: The MIC was 50 µg/mL (≈ 249 µM).

Q: And the MIC (Bacillus subtilis)?
A: Its MIC is > 100 µg/mL.

Q: What about the MIC (Staphylococcus aureus) of the same molecule?
A: The MIC was > 100 µg/mL.

Q: What about the MIC (Saccharomyces cerevisiae) of the same molecule?
A: The MIC was 100 µg/mL (≈ 497 µM).

Q: What about the MIC (Cladosporium resinae) of the same molecule?
A: The MIC was > 100 µg/mL.

Q: Which “Fs: activity” value (Fusarium culmorum) does the source give for `N#CN=[N+]([O-])c1cccc2c3c(oc12)CCCC3` [Example 17] here?
A: The value was 2.

Q: What about the MIC (Chaetomium globosum; 30° C., 3, 7 and 10 days) of the same molecule?
A: Its MIC is < 100 µg/mL.

Q: And the MIC (Desulfovibrio sp.)?
A: Its MIC is > 100 µg/mL.

Q: What about the MIC (Escherichia coli) of the same molecule?
A: Its MIC is > 100 µg/mL.

Q: What about the “Ph: activity against wheat eyespot” value [1] of the same molecule?
A: Its value is 1.

Q: What about the MIC (Aspergillus niger) of the same molecule?
A: The MIC was < 5 µg/mL.

Q: What about the MIC (Bacillus subtilis) of the same molecule?
A: Its MIC is > 100 µg/mL.

Q: What about the MIC (Staphylococcus aureus) of the same molecule?
A: The MIC was 100 µg/mL (≈ 415 µM).

Q: What about the MIC (Saccharomyces cerevisiae) of the same molecule?
A: Its MIC is 50 µg/mL (≈ 207 µM).

Q: What about the MIC (Cladosporium resinae) of the same molecule?
A: The MIC was 25 µg/mL (≈ 104 µM).

Q: `Cc1oc2c([N+]([O-])=NC#N)cccc2c1C` [Example 18] was tested. Which “Fs: activity” value (Fusarium culmorum) did it give?
A: Its value is 2.

Q: What about the MIC (Chaetomium globosum; 30° C., 3, 7 and 10 days) of the same molecule?
A: The MIC was 100 µg/mL (≈ 465 µM).

Q: What about the MIC (Desulfovibrio sp.) of the same molecule?
A: The MIC was > 100 µg/mL.

Q: And the MIC (Escherichia coli)?
A: The MIC was > 100 µg/mL.

Q: What about the “Ph: activity against wheat eyespot” value [1] of the same molecule?
A: Its value is 1.

Q: And the MIC (Aspergillus niger)?
A: Its MIC is 100 µg/mL (≈ 465 µM).

Q: And the MIC (Bacillus subtilis)?
A: Its MIC is > 100 µg/mL.

Q: What about the MIC (Staphylococcus aureus) of the same molecule?
A: The MIC was 5 µg/mL (≈ 23.2 µM).

Q: What about the MIC (Saccharomyces cerevisiae) of the same molecule?
A: The MIC was 100 µg/mL (≈ 465 µM).

Q: What about the MIC (Cladosporium resinae) of the same molecule?
A: Its MIC is 100 µg/mL (≈ 465 µM).

Q: Which “Fs: activity” value (Fusarium culmorum) does the source give for `Cc1cc2cc([N+]([O-])=NC#N)ccc2o1` [Example 23] here?
A: The value was 2.

Q: What about the MIC (Chaetomium globosum; *only tested at 100 ppm) of the same molecule?
A: The MIC was < 100 µg/mL.

Q: And the MIC (Desulfovibrio sp.)?
A: The MIC was 100 µg/mL (≈ 497 µM).

Q: And the MIC (Escherichia coli)?
A: Its MIC is > 100 µg/mL.

Q: And the “Ph: activity against wheat eyespot” value [1]?
A: Its value is 1.

Q: What about the MIC (Aspergillus niger) of the same molecule?
A: Its MIC is 25 µg/mL (≈ 124 µM).

Q: What about the MIC (Bacillus subtilis) of the same molecule?
A: The MIC was 50 µg/mL (≈ 249 µM).

Q: What about the MIC (Staphylococcus aureus) of the same molecule?
A: Its MIC is > 100 µg/mL.

Q: What about the MIC (Saccharomyces cerevisiae) of the same molecule?
A: Its MIC is 25 µg/mL (≈ 124 µM).

Q: What about the MIC (Cladosporium resinae) of the same molecule?
A: The MIC was 25 µg/mL (≈ 124 µM).

Q: How did the “Fs: activity” value (Fusarium culmorum) turn out when `N#CN=[N+]([O-])c1cc(Cl)cc2c1OCC=C2` [Example 26] was run?
A: Its value is 2.

Q: And the MIC (Chaetomium globosum; 30° C., 3, 7 and 10 days)?
A: Its MIC is 50 µg/mL (≈ 212 µM).

Q: What about the MIC (Desulfovibrio sp.) of the same molecule?
A: The MIC was 100 µg/mL (≈ 424 µM).

Q: What about the MIC (Escherichia coli) of the same molecule?
A: The MIC was > 100 µg/mL.

Q: And the “Ph: activity against wheat eyespot” value [1]?
A: Its value is 1.

Q: And the MIC (Aspergillus niger)?
A: Its MIC is 25 to 50 µg/mL (≈ 106 to 212 µM).

Q: And the MIC (Bacillus subtilis)?
A: The MIC was 50 µg/mL (≈ 212 µM).

Q: And the MIC (Staphylococcus aureus)?
A: Its MIC is 100 µg/mL (≈ 424 µM).

Q: What about the MIC (Saccharomyces cerevisiae) of the same molecule?
A: The MIC was > 100 µg/mL.

Q: And the MIC (Cladosporium resinae)?
A: Its MIC is 25 to 100 µg/mL (≈ 106 to 424 µM).

Q: With `CC1(C)C=Cc2cc(F)cc([N+]([O-])=NC#N)c2O1` [Example 29] as the molecule, how does the “Fs: activity” value (Fusarium culmorum) read?
A: Its value is 2.

Q: What about the MIC (Chaetomium globosum; 30° C., 3, 7 and 10 days) of the same molecule?
A: Its MIC is 5 to 100 µg/mL (≈ 20.2 to 404 µM).

Q: What about the MIC (Desulfovibrio sp.) of the same molecule?
A: The MIC was > 100 µg/mL.

Q: And the MIC (Escherichia coli)?
A: The MIC was > 100 µg/mL.

Q: And the “Ph: activity against wheat eyespot” value [1]?
A: Its value is 2.

Q: What about the MIC (Aspergillus niger) of the same molecule?
A: Its MIC is 25 to 100 µg/mL (≈ 101 to 404 µM).

Q: And the MIC (Bacillus subtilis)?
A: Its MIC is 100 µg/mL (≈ 404 µM).

Q: And the MIC (Staphylococcus aureus)?
A: Its MIC is > 100 µg/mL.

Q: And the MIC (Saccharomyces cerevisiae)?
A: Its MIC is 50 µg/mL (≈ 202 µM).

Q: And the MIC (Cladosporium resinae)?
A: The MIC was 50 to 100 µg/mL (≈ 202 to 404 µM).
